Experimental data taken from PMC12583661, “Commensal gut bacteria employ de-chelatase HmuS to harvest iron from heme” (The EMBO Journal, 2025).

What was measured:
HmuS [1] = molecular target: T1, HmuS (Bacteroides thetaiotaomicron, UniProt A0A0P0FP54); assay: cryo-EM structure at […] Å with heme; UV/vis hemin titration (Kd); HPLC turnover to PPIX; assay type: binding
T1 construct: gene GAN91_17490; soluble HmuS without its predicted N- and C-terminal membrane-anchoring helices
T1 sequence (A0A0P0FP54 28-1433 limits assumed): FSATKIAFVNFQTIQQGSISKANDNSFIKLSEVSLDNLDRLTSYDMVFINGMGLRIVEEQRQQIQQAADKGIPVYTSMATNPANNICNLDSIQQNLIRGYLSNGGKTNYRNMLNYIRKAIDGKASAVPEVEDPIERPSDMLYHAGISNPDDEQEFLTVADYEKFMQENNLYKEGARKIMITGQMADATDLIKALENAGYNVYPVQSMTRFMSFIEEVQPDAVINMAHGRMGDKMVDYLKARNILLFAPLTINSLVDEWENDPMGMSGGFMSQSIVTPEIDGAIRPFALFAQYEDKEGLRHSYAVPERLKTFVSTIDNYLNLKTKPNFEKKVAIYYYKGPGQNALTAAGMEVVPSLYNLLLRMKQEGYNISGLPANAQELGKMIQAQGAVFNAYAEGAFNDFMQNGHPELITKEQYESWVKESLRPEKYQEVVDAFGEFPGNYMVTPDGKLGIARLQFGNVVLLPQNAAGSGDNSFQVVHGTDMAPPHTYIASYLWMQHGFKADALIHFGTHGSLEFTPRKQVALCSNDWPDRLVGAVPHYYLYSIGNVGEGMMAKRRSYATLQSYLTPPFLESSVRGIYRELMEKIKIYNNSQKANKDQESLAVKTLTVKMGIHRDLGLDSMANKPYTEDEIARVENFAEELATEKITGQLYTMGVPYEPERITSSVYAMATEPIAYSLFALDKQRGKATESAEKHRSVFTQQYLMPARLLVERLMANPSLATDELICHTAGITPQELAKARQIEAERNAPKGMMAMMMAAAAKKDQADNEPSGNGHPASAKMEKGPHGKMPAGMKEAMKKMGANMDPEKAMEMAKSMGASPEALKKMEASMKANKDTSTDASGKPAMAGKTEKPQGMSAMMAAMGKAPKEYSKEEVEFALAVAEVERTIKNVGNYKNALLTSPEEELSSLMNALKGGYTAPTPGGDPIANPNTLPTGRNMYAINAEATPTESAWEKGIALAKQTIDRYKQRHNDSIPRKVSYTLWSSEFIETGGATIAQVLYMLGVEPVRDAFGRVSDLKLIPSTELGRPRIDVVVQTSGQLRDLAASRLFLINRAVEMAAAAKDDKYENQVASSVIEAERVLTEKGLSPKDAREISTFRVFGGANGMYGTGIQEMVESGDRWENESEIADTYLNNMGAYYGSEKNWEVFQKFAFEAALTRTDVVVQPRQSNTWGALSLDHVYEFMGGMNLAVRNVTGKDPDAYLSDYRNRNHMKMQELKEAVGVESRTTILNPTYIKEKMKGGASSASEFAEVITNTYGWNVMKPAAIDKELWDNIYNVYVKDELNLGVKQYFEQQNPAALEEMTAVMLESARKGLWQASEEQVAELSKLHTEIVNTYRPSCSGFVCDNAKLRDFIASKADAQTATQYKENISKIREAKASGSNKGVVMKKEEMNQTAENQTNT

HmuS [2] = molecular target: T2, HmuS (Bacteroides thetaiotaomicron, UniProt A0A0P0FP54, H538A); assay: UV/vis hemin titration of purified mutant; no turnover to PPIX; assay type: binding
T2 construct: gene GAN91_17490; soluble HmuS without its predicted N- and C-terminal membrane-anchoring helices

C=CC1=C(C)C2=Cc3c(C=C)c(C)c4[n]3[Fe][n]3c(c(C)c(CCC(=O)O)c3=CC3=NC(=C4)C(C)=C3CCC(=O)O)=CC1=N2 [heme]
Kd (HmuS [1]): 6 ± 6 µM | Kd (HmuS [2]): 1400 ± 100 nM
